Target: CD73 (Homo sapiens (Human), UniProt P21589)
Test: Biochemical assay: inhibition of CD73 activity (AMP hydrolysis, Malachite Green readout)
Settings: CD73 0.3208 nM, AMP 15 μM, 25 mM Tris-HCl pH 7.4, RT, absorbance 620 nm
How it was run: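 Human CD73 (320 pM final) preincubated 15 min at RT with compounds (10-point ½-log titration from 100 μM, duplicates) in 25 mM Tris-HCl pH 7.4, 5 mM MgCl2, 0.01% Brij-35, 0.01% BSA. 15 μM AMP added, 10 min at RT; released phosphate read by Malachite Green absorbance; IC50 determined.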

Chain of CD73 (P21589 27-574): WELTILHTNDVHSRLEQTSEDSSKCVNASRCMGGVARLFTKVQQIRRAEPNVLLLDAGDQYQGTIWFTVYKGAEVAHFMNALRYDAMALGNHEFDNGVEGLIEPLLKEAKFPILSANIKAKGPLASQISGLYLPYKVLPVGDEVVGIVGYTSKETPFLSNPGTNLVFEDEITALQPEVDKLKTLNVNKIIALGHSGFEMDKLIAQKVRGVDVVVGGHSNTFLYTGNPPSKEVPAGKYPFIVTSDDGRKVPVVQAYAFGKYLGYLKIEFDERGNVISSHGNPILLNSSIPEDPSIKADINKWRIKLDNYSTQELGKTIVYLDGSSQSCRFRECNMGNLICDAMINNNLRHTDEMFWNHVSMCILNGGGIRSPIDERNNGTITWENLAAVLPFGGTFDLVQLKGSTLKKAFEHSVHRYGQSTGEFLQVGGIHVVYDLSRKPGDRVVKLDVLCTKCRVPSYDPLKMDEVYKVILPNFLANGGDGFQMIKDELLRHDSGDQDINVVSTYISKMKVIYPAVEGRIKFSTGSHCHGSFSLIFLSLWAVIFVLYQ

`C[C@@H](Nc1nc(Cl)nc2c1cnn2[C@@H]1O[C@H](COC(CO)(CO)P(=O)(O)O)[C@@H](O)[C@H]1O)c1ccc(F)cc1` (racemic) [Example 222, rac-(2-(((2R,3S,4R,5R)-5-(6-chloro-4-(((R)-1-(4-fluorophenyl)ethyl)amino)-1H-pyrazolo[3,4-d]pyrimidin-1-yl)-3,4-dihydroxytetrahydrofuran-2-yl)methoxy)-1,3-dihydroxypropan-2-yl)phosphonic acid] was tested, and the IC50 was at most 100 nM.
`O=P(O)(O)C(CO)(CO)OC[C@H]1O[C@@H](n2ncc3c(N[C@@H]4CCc5ccccc54)nc(OCCO)nc32)[C@H](O)[C@@H]1O` [Example 100, (2-(((2R,3S,4R,5R)-5-(4-(((R)-2,3-dihydro-1H-inden-1-yl)amino)-6-(2-hydroxyethoxy)-1H-pyrazolo[3,4-d]pyrimidin-1-yl)-3,4-dihydroxytetrahydrofuran-2-yl)methoxy)-1,3-dihydroxypropan-2-yl)phosphonic acid] gave an IC50 of at most 100 nM.
In the case of `C[C@@H]1CCC[C@@H]1Nc1nc(Cl)nc2c1cnn2[C@@H]1O[C@H](COC(CO)(CO)P(=O)(O)O)[C@@H](O)[C@H]1O` (racemic) [Example 228, rac-(2-(((2R,3S,4R,5R)-5-(6-chloro-4-(((1S,2R)-2-methylcyclopentyl)amino)-1H-pyrazolo[3,4-d]pyrimidin-1-yl)-3,4-dihydroxytetrahydrofuran-2-yl)methoxy)-1,3-dihydroxypropan-2-yl)phosphonic acid], the IC50 is reported as at most 100 nM.
`CC(COCC1CC1)(OC[C@H]1O[C@@H](n2ncc3c(NC4CCCC4)nc(Cl)nc32)[C@H](O)[C@@H]1O)P(=O)(O)O` (stereo partly drawn) [Example 153, (2-(((2R,3S,4R,5R)-5-(6-chloro-4-(cyclopentylamino)-1H-pyrazolo[3,4-d]pyrimidin-1-yl)-3,4-dihydroxytetrahydrofuran-2-yl)methoxy)-1-(cyclopropylmethoxy)propan-2-yl)phosphonic acid] gave an IC50 of at most 100 nM.
`O=P(O)(O)C(CO)(Cc1nc[nH]n1)OC[C@H]1O[C@@H](n2ncc3c(NC4CCCC4)nc(Cl)nc32)[C@H](O)[C@@H]1O` (mixture of isomers) [Example 219, rac-(2-(((2R,3S,4R,5R)-5-(6-chloro-4-(cyclopentylamino)-1H-pyrazolo[3,4-d]pyrimidin-1-yl)-3,4-dihydroxytetrahydrofuran-2-yl)methoxy)-1-hydroxy-3-(1H-1,2,4-triazol-3-yl)propan-2-yl)phosphonic acid] showed an IC50 of at most 100 nM.
With `COC[C@@](Cc1nn[nH]n1)(OC[C@H]1O[C@@H](n2ncc3c(NC4CCCC4)nc(Cl)nc32)[C@H](O)[C@@H]1O)P(=O)(O)O` (racemic) [Example 212, rac-((R)-2-(((2S,3R,4S,5S)-5-(6-chloro-4-(cyclopentylamino)-1H-pyrazolo[3,4-d]pyrimidin-1-yl)-3,4-dihydroxytetrahydrofuran-2-yl)methoxy)-1-methoxy-3-(2H-tetrazol-5-yl)propan-2-yl)phosphonic acid] the IC50 was at most 100 nM.
Molecule `O=P(O)(O)C(OC[C@H]1O[C@@H](n2ncc3c(NC4CCCC4)nc(Cl)nc32)[C@H](O)[C@@H]1O)C(F)(F)F` (stereo partly drawn) [Example 80, (1-(((2R,3S,4R,5R)-5-(6-chloro-4-(cyclopentylamino)-1H-pyrazolo[3,4-d]pyrimidin-1-yl)-3,4-dihydroxytetrahydrofuran-2-yl)methoxy)-2,2,2-trifluoroethyl)phosphonic acid] has an IC50 of 100 to 1000 nM.
With `O=P(O)(O)COC[C@H]1O[C@@H](n2nnc3c(NC4CCC4)cc(Cl)nc32)[C@H](O)[C@@H]1O` [Example 23, ((((2R,3S,4R,5R)-5-(5-chloro-7-(cyclobutylamino)-3H-[1,2,3]triazolo[4,5-b]pyridin-3-yl)-3,4-dihydroxytetrahydrofuran-2-yl)methoxy)methyl)phosphonic acid] the IC50 was at most 100 nM.
For `O=P(O)(O)CS(=O)(=O)C[C@H]1O[C@@H](n2nnc3c(NCc4ccccc4Cl)cc(Cl)nc32)[C@H](O)[C@@H]1O` [Example 27, (((((2S,3S,4R,5R)-5-(5-chloro-7-((2-chlorobenzyl)amino)-3H-[1,2,3]triazolo[4,5-b]pyridin-3-yl)-3,4-dihydroxytetrahydrofuran-2-yl)methyl)sulfonyl)methyl)phosphonic acid], the IC50 was at most 100 nM.
For `O=P(O)(O)C(CO)OC[C@H]1O[C@@H](n2nnc3c(NC4CCCC4)cc(Cl)nc32)[C@H](O)[C@@H]1O` (stereo partly drawn) [Example 60, (1-(((2R,3S,4R,5R)-5-(5-chloro-7-(cyclopentylamino)-3H-[1,2,3]triazolo[4,5-b]pyridin-3-yl)-3,4-dihydroxytetrahydrofuran-2-yl)methoxy)-2-hydroxyethyl)phosphonic acid], the IC50 was at most 100 nM.
`O=P(O)(O)[C@@H](Cc1ccccc1)S(=O)(=O)C[C@H]1O[C@@H](n2ncc3c(NC4CCCC4)nc(Cl)nc32)[C@H](O)[C@@H]1O` [Example 10, ((R)-1-((((2S,3S,4R,5R)-5-(6-chloro-4-(cyclopentylamino)-1H-pyrazolo[3,4-d]pyrimidin-1-yl)-3,4-dihydroxytetrahydrofuran-2-yl)methyl)sulfonyl)-2-phenylethyl)phosphonic acid] was tested, and the IC50 was at most 100 nM.
With `O=P(O)(O)[C@H](CO)OC[C@H]1O[C@@H](n2nnc3c(NC4CCCC4)cc(Cl)nc32)[C@H](O)[C@@H]1O` [Example 144, ((R)-1-(((2R,3S,4R,5R)-5-(5-chloro-7-(cyclopentylamino)-3H-[1,2,3]triazolo[4,5-b]pyridin-3-yl)-3,4-dihydroxytetrahydrofuran-2-yl)methoxy)-2-hydroxyethyl)phosphonic acid] the IC50 was at most 100 nM.
For `C[C@@](CO)(OC[C@H]1O[C@@H](n2ncc3c(NC4CC5(CCC5)C4)nc(Cl)nc32)[C@H](O)[C@@H]1O)P(=O)(O)O` [Example 126, ((R)-2-(((2R,3S,4R,5R)-5-(6-chloro-4-(spiro[3.3]heptan-2-ylamino)-1H-pyrazolo[3,4-d]pyrimidin-1-yl)-3,4-dihydroxytetrahydrofuran-2-yl)methoxy)-1-hydroxypropan-2-yl)phosphonic acid], the IC50 was at most 100 nM.
For `CC(CO)(OC[C@H]1O[C@@H](n2ncc3c(N[C@@H]4CCC45CCC5)nc(Cl)nc32)[C@H](O)[C@@H]1O)P(=O)(O)O` (stereo partly drawn) [Example 135, (2-(((2R,3S,4R,5R)-5-(6-chloro-4-(((R)-spiro[3.3]heptan-1-yl)amino)-1H-pyrazolo[3,4-d]pyrimidin-1-yl)-3,4-dihydroxytetrahydrofuran-2-yl)methoxy)-1-hydroxypropan-2-yl)phosphonic acid], the IC50 was at most 100 nM.
`Cn1nnc(CC(CO)(OC[C@H]2O[C@@H](n3ncc4c(NC5CCCC5)nc(Cl)nc43)[C@H](O)[C@@H]2O)P(=O)(O)O)n1` (stereo partly drawn) [Example 96, (2-(((2R,3S,4R,5R)-5-(6-chloro-4-(cyclopentylamino)-1H-pyrazolo[3,4-d]pyrimidin-1-yl)-3,4-dihydroxytetrahydrofuran-2-yl)methoxy)-1-hydroxy-3-(2-methyl-2H-tetrazol-5-yl)propan-2-yl)phosphonic acid] showed an IC50 of at most 100 nM.
`CC(CO)(OC[C@H]1O[C@@H](n2nnc3c(N[C@@H]4CCc5ccccc54)nc(Cl)nc32)[C@H](O)[C@@H]1O)P(=O)(O)O` (stereo partly drawn) [Example 78, (2-(((2R,3S,4R,5R)-5-(5-chloro-7-(((R)-2,3-dihydro-1H-inden-1-yl)amino)-3H-[1,2,3]triazolo[4,5-d]pyrimidin-3-yl)-3,4-dihydroxytetrahydrofuran-2-yl)methoxy)-1-hydroxypropan-2-yl)phosphonic acid] gave an IC50 of at most 100 nM.
`O=P(O)(O)C(CO)(COCC(F)(F)F)OC[C@H]1O[C@@H](n2ncc3c(NC4CCCC4)nc(Cl)nc32)[C@H](O)[C@@H]1O` (stereo partly drawn) [Example 95, (2-(((2R,3S,4R,5R)-5-(6-chloro-4-(cyclopentylamino)-1H-pyrazolo[3,4-d]pyrimidin-1-yl)-3,4-dihydroxytetrahydrofuran-2-yl)methoxy)-1-hydroxy-3-(2,2,2-trifluoroethoxy)propan-2-yl)phosphonic acid] was tested, and the IC50 was at most 100 nM.
`C[C@@](CO)(OC[C@H]1O[C@@H](n2ncc3c(N[C@@H]4CC[C@H]5CCC[C@H]54)nc(Cl)nc32)[C@H](O)[C@@H]1O)P(=O)(O)O` (racemic) [Example 182, rac-((R)-2-(((2R,3S,4R,5R)-5-(6-chloro-4-(((1R,3aR,6aR)-octahydropentalen1-yl)amino)-1H-pyrazolo[3,4-d]pyrimidin-1-yl)-3,4-dihydroxytetrahydrofuran-2-yl)methoxy)-1-hydroxypropan-2-yl)phosphonic acid] showed an IC50 of at most 100 nM.
`CC(CO)(OC[C@H]1O[C@@H](n2ncc3c(N[C@@H]4CCc5ccccc54)nc(Cl)nc32)[C@H](O)[C@@H]1O)P(=O)(O)O` (stereo partly drawn) [Example 61, (2-(((2R,3S,4R,5R)-5-(6-chloro-4-(((R)-2,3-dihydro-1H-inden-1-yl)amino)-1H-pyrazolo[3,4-d]pyrimidin-1-yl)-3,4-dihydroxytetrahydrofuran-2-yl)methoxy)-1-hydroxypropan-2-yl)phosphonic acid] was tested, and the IC50 was at most 100 nM.
`CCC(OC[C@H]1O[C@@H](n2ncc3c(NC4CCCC4)nc(Cl)nc32)[C@H](O)[C@@H]1O)P(=O)(O)O` (stereo partly drawn) [Example 14, (1-(((2R,3S,4R,5R)-5-(6-chloro-4-(cyclopentylamino)-1H-pyrazolo[3,4-d]pyrimidin-1-yl)-3,4-dihydroxytetrahydrofuran-2-yl)methoxy)propyl)phosphonic acid] showed an IC50 of at most 100 nM.
`COCC(OC[C@H]1O[C@@H](n2cnc3c(NC4CCCC4)nc(Cl)nc32)[C@H](O)[C@@H]1O)P(=O)(O)O` (stereo partly drawn) [Example 160, (1-(((2R,3S,4R,5R)-5-(2-chloro-6-(cyclopentylamino)-9H-purin-9-yl)-3,4-dihydroxytetrahydrofuran-2-yl)methoxy)-2-methoxyethyl)phosphonic acid] was tested, and the IC50 was at most 100 nM.
Work on `COCC(CC(=O)O)(OC[C@H]1O[C@@H](n2ncc3c(NC4CCCC4)nc(Cl)nc32)[C@H](O)[C@@H]1O)P(=O)(O)O` (mixture of isomers) [Example 210, rac-3-(((2R,3S,4R,5R)-5-(6-chloro-4-(cyclopentyalmino)-1H-pyrazolo[3,4-d]pyrimidin-1-yl)-3,4-dihydroxytetrahydrofuran-2-yl)methoxy)-4-methoxy-3-phosphonobutanoic acid] yielded an IC50 of at most 100 nM.

Source: patent US11325938B2, “CD73 inhibitors” (ORIC Pharmaceuticals, Inc., priority 2018, dated 2022)
